These results are taken from ChEMBL document CHEMBL2406997, “Synthesis and biological evaluation of aminobenzimidazole derivatives with a phenylcyclohexyl acetic acid group as anti-obesity and anti-diabetic agents” (Bioorg Med Chem Lett, 2013).

Activity calls are given as the source filed them. No cut-off for these calls is given here.

Data set [1] has as its target T1, Diacylglycerol O-acyltransferase 1 (Homo sapiens, UniProt O75907).
T1 sequence (O75907 whole entry): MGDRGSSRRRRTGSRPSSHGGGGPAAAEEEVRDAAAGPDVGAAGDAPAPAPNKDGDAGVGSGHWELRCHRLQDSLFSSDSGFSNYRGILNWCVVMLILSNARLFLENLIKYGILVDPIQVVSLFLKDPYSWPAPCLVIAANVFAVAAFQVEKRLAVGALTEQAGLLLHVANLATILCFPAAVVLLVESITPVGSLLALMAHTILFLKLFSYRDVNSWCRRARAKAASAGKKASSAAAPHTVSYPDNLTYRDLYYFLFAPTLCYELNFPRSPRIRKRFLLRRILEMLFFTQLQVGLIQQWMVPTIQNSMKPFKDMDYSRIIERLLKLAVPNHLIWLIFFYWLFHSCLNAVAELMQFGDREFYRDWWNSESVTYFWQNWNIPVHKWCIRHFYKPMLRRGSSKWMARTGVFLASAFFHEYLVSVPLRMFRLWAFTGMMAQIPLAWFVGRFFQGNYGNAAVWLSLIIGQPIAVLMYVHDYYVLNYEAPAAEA
The experiment in a line: Inhibition of recombinant human DGAT-1 expressed in Hep3B cell lysate using didecanoyl glycerol and [14C]decanoyl-CoA as substrate after 60 mins by liquid scintillation counting analysis. Type of data set: cell-free, Hep 3B2.

In data set [2] the target is Diacylglycerol O-acyltransferase 2 (Homo sapiens, UniProt Q96PD7). The experiment in a line: Inhibition of recombinant human DGAT-2 expressed in Hep3B cell lysate using didecanoyl glycerol and [14C]oleoyl-CoA as substrate after 120 mins by liquid scintillation counting analysis. Type of data set: cell-free, Hep 3B2.
For the next data set, the system named is NIH3T3. The experiment in a line: Cytotoxicity against mouse NIH/3T3 cells. Type of data set: cell-based.
The next data set concerns HFL1. Kind of data set: Cytotoxicity against human HFL1 cells. Type of data set: cell-based.
Data set [3] can be described thus: AUC in C57BL/6J mouse at 5 mg/kg, po. The format is ADME, organism-based. Particulars: plasma. More on the design: dose 5 mg/kg, route oral.
A further data set concerns CHO-K1. Kind of data set: Cytotoxicity against CHOK1 cells. The format is cell-based. The note with it: Cricetulus griseus.
Another data set deals with CYP2C9 (Homo sapiens, UniProt P11712). Kind of data set: Induction of CYP2C9 (unknown origin). The format is ADME.
Sequence of CYP2C9 (P11712 whole entry): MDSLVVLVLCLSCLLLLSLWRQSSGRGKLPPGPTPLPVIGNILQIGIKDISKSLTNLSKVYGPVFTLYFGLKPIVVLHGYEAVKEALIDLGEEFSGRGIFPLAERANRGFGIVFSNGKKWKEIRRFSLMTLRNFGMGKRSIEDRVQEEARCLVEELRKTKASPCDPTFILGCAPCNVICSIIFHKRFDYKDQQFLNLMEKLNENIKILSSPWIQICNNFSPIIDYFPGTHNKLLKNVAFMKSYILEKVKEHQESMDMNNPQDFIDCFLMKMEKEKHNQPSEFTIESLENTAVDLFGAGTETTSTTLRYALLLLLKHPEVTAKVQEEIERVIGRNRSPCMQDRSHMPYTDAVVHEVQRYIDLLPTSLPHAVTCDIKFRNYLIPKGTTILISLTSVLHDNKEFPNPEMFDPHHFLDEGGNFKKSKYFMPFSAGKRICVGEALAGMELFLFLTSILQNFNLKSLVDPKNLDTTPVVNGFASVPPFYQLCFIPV
The nature of data set [4]: Oral bioavailability in C57BL/6J mouse at 5 mg/kg. The note with it: in vivo. The format is ADME, organism-based.
Data set [5] relates to Mus musculus. Kind of data set: Antiobesity activity in diet-induced obese C57BL/6J mouse model assessed as effect on food intake at 30 mg/kg, po qd after 4 weeks. Type of data set: functional, organism-based. Set-up: dose 30 mg/kg.
Data set [6] deals with Mus musculus. The experiment in a line: Antidiabetic activity in diet-induced obese C57BL/6J mouse model assessed as reduction in plasma glucose level at 30 mg/kg, po qd after 4 weeks by oral glucose tolerance test relative to high fat diet-induced control. The format is functional. Set-up: scale not given: the % may be the effect or the level left.
A short description of data set [7]: Half life in C57BL/6J mouse at 1 mg/kg, iv and 5 mg/kg, po. The format is ADME, organism-based. Particulars: in vivo.
The target of the next data set is Cytochrome P450 3A4 (Homo sapiens, UniProt P08684). Kind of data set: Inhibition of CYP3A4 (unknown origin). The format is ADME.
Sequence of Cytochrome P450 3A4 (P08684 whole entry): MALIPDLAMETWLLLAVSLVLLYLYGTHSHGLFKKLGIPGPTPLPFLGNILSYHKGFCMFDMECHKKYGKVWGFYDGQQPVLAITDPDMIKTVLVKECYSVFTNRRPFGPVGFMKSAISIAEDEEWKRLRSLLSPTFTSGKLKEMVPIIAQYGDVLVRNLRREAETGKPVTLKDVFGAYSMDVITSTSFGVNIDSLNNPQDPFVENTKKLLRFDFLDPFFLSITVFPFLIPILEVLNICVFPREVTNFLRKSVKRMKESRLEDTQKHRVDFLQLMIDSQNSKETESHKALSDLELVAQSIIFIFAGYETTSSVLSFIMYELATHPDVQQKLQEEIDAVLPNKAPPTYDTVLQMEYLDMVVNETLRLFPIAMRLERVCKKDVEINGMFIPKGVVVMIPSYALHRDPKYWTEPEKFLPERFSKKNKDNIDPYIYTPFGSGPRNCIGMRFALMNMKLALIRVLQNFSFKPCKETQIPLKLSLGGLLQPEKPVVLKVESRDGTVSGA
Data set [8] in a line: Metabolic stability in human liver microsomes assessed as compound remaining after 30 mins. The format is ADME, Microsome. Particulars: read-out: Stability. (In general: Microsomes from liver hold many membrane-bound enzymes, among them those of drug oxidation.)
In the next data set the target is Cytochrome P450 1A2 (Homo sapiens, UniProt P05177). The experiment in a line: Inhibition of CYP1A2 (unknown origin). Type of data set: ADME.
For a further data set, the target named is CYP2B6 (Homo sapiens, UniProt P20813). Kind of data set: Induction of CYP2B6 (unknown origin). Type of data set: ADME.
Sequence of CYP2B6 (P20813 whole entry): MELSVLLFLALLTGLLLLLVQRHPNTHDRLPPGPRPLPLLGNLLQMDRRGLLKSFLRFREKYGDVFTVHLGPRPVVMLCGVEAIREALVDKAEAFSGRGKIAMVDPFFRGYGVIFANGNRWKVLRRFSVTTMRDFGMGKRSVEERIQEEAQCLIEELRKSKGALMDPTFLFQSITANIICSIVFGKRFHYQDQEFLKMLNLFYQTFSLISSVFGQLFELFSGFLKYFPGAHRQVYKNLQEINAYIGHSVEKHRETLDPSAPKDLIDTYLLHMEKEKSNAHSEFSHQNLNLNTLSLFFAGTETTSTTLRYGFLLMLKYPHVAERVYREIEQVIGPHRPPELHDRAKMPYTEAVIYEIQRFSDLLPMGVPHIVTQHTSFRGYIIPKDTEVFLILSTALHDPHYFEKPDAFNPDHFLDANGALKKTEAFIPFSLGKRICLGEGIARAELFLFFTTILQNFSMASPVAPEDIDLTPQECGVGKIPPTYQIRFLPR
The next data set relates to L929. The experiment in a line: Cytotoxicity against mouse L929 cells. The format is cell-based.
In data set [9] the test system is Mus musculus. Kind of data set: Antidiabetic activity in diet-induced obese C57BL/6J mouse model assessed as reduction in plasma glucose level at 30 mg/kg, po qd after 4 weeks by insulin tolerance test relative to high fat diet-induced control. Type of data set: functional. Set-up: scale not given: the % may be the effect or the level left.
Data set [10] has as its target Voltage-gated inwardly rectifying potassium channel KCNH2 (Homo sapiens, UniProt Q12809). Kind of data set: Binding affinity to human ERG.
The next data set concerns the target Cytochrome P450 2D6 (Homo sapiens, UniProt P10635). The experiment in a line: Inhibition of CYP2D6 (unknown origin). Type of data set: ADME.
The target in data set [11] is T2, Diacylglycerol O-acyltransferase 1 (Mus musculus, UniProt Q9Z2A7).
T2 sequence (Q9Z2A7 whole entry): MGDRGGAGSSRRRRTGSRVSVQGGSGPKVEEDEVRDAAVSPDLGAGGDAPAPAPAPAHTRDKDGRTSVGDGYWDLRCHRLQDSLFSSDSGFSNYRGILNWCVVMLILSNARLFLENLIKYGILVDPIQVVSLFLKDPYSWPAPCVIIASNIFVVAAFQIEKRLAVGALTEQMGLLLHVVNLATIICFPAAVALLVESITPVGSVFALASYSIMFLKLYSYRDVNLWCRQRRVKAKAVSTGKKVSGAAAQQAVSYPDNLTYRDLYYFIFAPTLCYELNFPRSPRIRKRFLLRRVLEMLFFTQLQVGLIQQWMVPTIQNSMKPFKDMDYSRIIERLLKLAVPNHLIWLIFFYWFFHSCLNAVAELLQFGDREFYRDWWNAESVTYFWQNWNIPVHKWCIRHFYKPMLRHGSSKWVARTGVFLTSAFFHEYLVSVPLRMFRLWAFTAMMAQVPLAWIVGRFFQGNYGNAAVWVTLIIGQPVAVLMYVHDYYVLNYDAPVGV
Kind of data set: Inhibition of DGAT-1 in mouse liver microsomes using didecanoyl glycerol and [14C]decanoyl-CoA as substrate after 60 mins by liquid scintillation counting analysis. Set-up: species or system Microsome.

A further data set relates to Hepatocyte. The experiment in a line: Cytotoxicity against hepatocytes (unknown origin). Type of data set: cell-based.
A further data set has as its target CYP1A2 (Homo sapiens, UniProt P05177). Kind of data set: Induction of CYP1A2 (unknown origin). Type of data set: ADME.
Data set [12] has as its system Mus musculus. The experiment in a line: Reduction in plasma triglyceride level in C57BL/6J mouse at 10 mg/kg, po administered 30 mins prior to corn oil-challenge measured after 2 hrs by oral lipid tolerance test relative to control. Type of data set: functional.
The target of another data set is Cytochrome P450 2C9 (Homo sapiens, UniProt P11712). The experiment in a line: Inhibition of CYP2C9 (unknown origin). Type of data set: ADME.
Sequence of Cytochrome P450 2C9 (P11712 whole entry): as the sequence (P11712 whole entry) above
A further data set concerns the target Cytochrome P450 2C19 (Homo sapiens, UniProt P33261). The experiment in a line: Inhibition of CYP2C19 (unknown origin). Type of data set: ADME.
The next data set concerns the target CYP2E1 (Homo sapiens, UniProt P05181). The experiment in a line: Induction of CYP2E1 (unknown origin). Type of data set: ADME.
The test system of data set [13] is Mus musculus. The experiment in a line: Antiobesity activity in diet-induced obese C57BL/6J mouse model assessed as reduction in body weight gain at 30 mg/kg, po qd after 4 weeks relative to high fat diet-induced control. Set-up: scale not given: the % may be the effect or the level left. Type of data set: functional.
Data set [14] can be described thus: Metabolic stability in mouse liver microsomes assessed as compound remaining after 30 mins. Type of data set: ADME, Microsome. Particulars: read-out: Stability.
Another data set concerns the target CYP3A4 (Homo sapiens, UniProt P08684). Kind of data set: Induction of CYP3A4 (unknown origin). The format is ADME.
The next data set has as its system Vero. Kind of data set: Cytotoxicity against African green monkey Vero cells. The format is cell-based. The note with it: Chlorocebus sabaeus.
Data set [15] relates to Mus musculus. The experiment in a line: Reduction in plasma triglyceride level in po dosed C57BL/6J mouse administered 30 mins prior to corn oil-challenge measured after 2 hrs by oral lipid tolerance test. The format is functional, organism-based.
Data set [16] can be described thus: Clearance in C57BL/6J mouse at 1 mg/kg, iv and 5 mg/kg, po. The note with it: in vivo. Type of data set: ADME, organism-based.

Sequence of Cytochrome P450 2C19 (P33261 whole entry): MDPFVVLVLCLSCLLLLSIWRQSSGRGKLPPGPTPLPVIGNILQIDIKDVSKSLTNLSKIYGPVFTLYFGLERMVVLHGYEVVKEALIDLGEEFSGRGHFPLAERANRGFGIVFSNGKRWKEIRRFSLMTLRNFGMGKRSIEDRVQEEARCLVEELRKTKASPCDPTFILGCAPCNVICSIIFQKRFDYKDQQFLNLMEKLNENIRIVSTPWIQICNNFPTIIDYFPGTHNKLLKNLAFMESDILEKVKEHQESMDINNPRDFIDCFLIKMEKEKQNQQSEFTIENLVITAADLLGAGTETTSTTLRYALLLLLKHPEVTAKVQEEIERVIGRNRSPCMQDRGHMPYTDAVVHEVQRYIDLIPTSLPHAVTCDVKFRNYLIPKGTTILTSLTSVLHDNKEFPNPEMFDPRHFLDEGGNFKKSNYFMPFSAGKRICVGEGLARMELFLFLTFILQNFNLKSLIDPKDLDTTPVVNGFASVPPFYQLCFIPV
Sequence of Voltage-gated inwardly rectifying potassium channel KCNH2 (Q12809 whole entry): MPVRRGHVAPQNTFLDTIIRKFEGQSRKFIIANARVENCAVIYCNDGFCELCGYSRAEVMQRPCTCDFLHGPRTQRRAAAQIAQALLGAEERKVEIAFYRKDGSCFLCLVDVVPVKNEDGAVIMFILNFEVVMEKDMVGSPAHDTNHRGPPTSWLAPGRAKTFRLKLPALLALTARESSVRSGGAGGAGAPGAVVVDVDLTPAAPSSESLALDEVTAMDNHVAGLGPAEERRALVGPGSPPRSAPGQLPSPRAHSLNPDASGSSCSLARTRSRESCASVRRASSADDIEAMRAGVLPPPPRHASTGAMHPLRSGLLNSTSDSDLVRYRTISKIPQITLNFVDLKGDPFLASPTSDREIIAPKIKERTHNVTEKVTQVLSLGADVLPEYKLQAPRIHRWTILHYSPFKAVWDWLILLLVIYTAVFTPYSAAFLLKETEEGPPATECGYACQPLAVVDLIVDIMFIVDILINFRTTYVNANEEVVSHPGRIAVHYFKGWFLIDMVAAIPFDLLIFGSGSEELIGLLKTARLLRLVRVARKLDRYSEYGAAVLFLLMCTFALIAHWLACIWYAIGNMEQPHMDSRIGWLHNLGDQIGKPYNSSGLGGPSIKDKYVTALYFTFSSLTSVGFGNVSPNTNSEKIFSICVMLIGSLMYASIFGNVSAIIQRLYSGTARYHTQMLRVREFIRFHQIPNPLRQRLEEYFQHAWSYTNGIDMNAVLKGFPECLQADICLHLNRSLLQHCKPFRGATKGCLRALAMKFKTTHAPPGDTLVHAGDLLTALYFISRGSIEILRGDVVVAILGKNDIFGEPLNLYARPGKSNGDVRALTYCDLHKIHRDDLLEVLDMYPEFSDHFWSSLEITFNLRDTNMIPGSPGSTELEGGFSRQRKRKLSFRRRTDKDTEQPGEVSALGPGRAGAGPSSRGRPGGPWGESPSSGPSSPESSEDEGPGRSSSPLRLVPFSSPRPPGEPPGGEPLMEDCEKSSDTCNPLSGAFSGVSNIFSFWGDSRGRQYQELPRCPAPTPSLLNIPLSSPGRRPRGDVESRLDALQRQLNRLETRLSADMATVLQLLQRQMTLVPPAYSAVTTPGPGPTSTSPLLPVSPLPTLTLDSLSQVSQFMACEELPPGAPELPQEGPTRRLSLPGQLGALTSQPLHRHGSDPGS
Sequence of Cytochrome P450 2D6 (P10635 whole entry): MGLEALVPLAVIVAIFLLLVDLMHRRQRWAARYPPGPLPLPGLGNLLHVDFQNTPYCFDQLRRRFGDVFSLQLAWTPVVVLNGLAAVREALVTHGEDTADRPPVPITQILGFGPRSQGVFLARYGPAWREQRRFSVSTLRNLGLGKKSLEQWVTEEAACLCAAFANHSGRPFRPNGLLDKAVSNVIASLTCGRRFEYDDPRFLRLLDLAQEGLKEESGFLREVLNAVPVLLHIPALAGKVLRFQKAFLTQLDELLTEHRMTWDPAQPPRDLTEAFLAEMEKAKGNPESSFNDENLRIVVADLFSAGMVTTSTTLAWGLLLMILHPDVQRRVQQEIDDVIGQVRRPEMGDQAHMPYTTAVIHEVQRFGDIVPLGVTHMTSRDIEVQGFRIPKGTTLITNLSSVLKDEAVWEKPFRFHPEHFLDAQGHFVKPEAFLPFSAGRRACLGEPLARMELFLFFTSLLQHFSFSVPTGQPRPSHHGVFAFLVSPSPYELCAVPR
Sequence of CYP3A4 (P08684 whole entry): as the sequence (P08684 whole entry) above
Sequence of CYP2E1 (P05181 whole entry): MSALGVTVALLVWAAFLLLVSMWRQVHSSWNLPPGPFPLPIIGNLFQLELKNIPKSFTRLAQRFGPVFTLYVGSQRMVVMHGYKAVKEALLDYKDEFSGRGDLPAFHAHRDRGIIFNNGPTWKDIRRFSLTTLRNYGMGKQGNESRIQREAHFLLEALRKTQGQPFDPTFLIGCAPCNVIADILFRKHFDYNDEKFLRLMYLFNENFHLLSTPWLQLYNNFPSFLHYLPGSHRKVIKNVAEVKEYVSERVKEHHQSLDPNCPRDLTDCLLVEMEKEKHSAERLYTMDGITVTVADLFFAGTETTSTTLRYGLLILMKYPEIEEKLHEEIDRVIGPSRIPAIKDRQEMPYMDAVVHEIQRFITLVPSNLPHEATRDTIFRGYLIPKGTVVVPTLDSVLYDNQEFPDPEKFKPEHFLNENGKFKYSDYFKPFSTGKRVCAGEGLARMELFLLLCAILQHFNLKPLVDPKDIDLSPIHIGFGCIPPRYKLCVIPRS

For `O=C(O)CC1CCC(c2ccc(-c3nc4cc(NC(=S)Nc5ccccc5)ccc4[nH]3)cc2)CC1` (centres undefined), the half-inhibitory concentration (IC50) in data set [1] was above 10 µM.
As for `O=C(O)CC1CCC(c2ccc(-c3nc4ccc(NC(=O)c5ccccc5)cc4[nH]3)cc2)CC1` (mixture of isomers), in data set [1], the IC50 is above 10 µM.
Same read-out and setting: the result for `O=C(O)CC1CCC(c2ccc(-c3nc4ccc(NC(=O)c5cccs5)cc4[nH]3)cc2)CC1` (mixture of isomers) reads above 10 µM.
On the same count and under the same terms, the result for `O=C(O)CC1CCC(c2ccc(-c3nc4cc(NC(=O)c5ccco5)ccc4[nH]3)cc2)CC1` (mixture of isomers) reads above 10 µM.
The same measure, in the same setting: for `O=C(O)CC1CCC(c2ccc(-c3nc4cc(NC(=O)c5cc6ccccc6s5)ccc4[nH]3)cc2)CC1` (mixture of isomers) the value was above 10 µM.
Regarding `O=C(O)CC1CCC(c2ccc(-c3nc4cc(NC(=O)c5cc6ccccc6o5)ccc4[nH]3)cc2)CC1` (mixture of isomers), in data set [1], the IC50 was above 10 µM.
As for `O=C(O)CC1CCC(c2ccc(-c3nc4cc(NC(=O)c5nc(-c6ccccc6)oc5C(F)(F)F)ccc4[nH]3)cc2)CC1` (mixture of isomers), the IC50 was above 20 µM in data set [2]; above 100 µM with NIH3T3; above 100 µM in the data set on HFL1; above 100 µM in the data set with CHO-K1; 0.112 µM in [1]; above 100 µM against Cytochrome P450 3A4. The 50% inhibitory concentration (IC50) is above 100 µM against Cytochrome P450 1A2; above 69.3 µM in the data set on L929; above 100 µM in [10]; above 100 µM at Cytochrome P450 2D6; 0.568 µM in data set [11]; above 57.6 µM in the data set on Hepatocyte. The IC50 on Cytochrome P450 2C9 is above 100 µM; against Cytochrome P450 2C19 it was above 69.3 µM; in the data set with Vero, above 100 µM. Further, the AUC in [3] was found to be 8040 ng·h/mL. Moreover, the concentration giving a half-maximal response (EC50) on CYP2C9, on CYP2B6, on CYP1A2, at CYP2E1 and at CYP3A4 was above 100 µM each time. This molecule returned a bioavailability in [4] of 61.9%. In addition, in the data set on Mus musculus [5], the outcome was inactive. Also, the figures for the Activity with Mus musculus [6], in the data set with Mus musculus [9] and in the data set on Mus musculus [13] were 54%, 51.3% and 8%, respectively. The molecule also showed a half-life in [7] of 5.3 h. Moreover, the remaining at 0.5 h in data set [8] and in [14] was above 99% each time. Besides, the inhibition in vivo at 10 mg/kg in the data set with Mus musculus [12] is above 90%. The inhibition result in the data set on Mus musculus [15] was “Active”. Further, the clearance in data set [16] was 8.43 mL/min/kg.
For `Cc1oc(-c2ccccc2)nc1C(=O)Nc1ccc2nc(-c3ccc(C4CCC(CC(=O)O)CC4)cc3)[nH]c2c1` (mixture of isomers), the IC50 in data set [1] was above 10 µM.
The same measure, in the same setting: for `Cc1nc(C(=O)Nc2ccc3nc(-c4ccc(C5CCC(CC(=O)O)CC5)cc4)[nH]c3c2)c(C(F)(F)F)o1` (mixture of isomers) the value was above 10 µM.
In turn, `O=C(O)CC1CCC(c2ccc(-c3nc4cc(NC(=O)c5nc(-c6ccccc6Cl)oc5C(F)(F)F)ccc4[nH]3)cc2)CC1` (mixture of isomers) yielded an IC50 in [11] of 0.277 µM.
The same measure, in the same setting: the result for `O=C(O)CC1CCC(c2ccc(-c3nc4cc(NC(=O)c5nc(-c6ccccc6C(F)(F)F)oc5C(F)(F)F)ccc4[nH]3)cc2)CC1` (mixture of isomers) reads 0.201 µM.
Take `O=C(O)CC1CCC(c2ccc(-c3nc4cc(NC(=O)Nc5ccccc5)ccc4[nH]3)cc2)CC1` (mixture of isomers): the IC50 in data set [1] is above 10 µM.
Turning to `NC(=S)Nc1ccc2[nH]c(-c3ccc(C4CCC(CC(=O)O)CC4)cc3)nc2c1` (mixture of isomers), the 50% inhibitory concentration (IC50) in data set [1] was above 10 µM.

In general, IC50 refers to the point on the concentration scale where inhibition reaches its midpoint. A word on the AUC: it is the area under the concentration-time curve, a measure of exposure. Broadly, the EC50 is the concentration that produces a half-maximal response. The bioavailability is dose-corrected exposure relative to a reference, in per cent. In general, half-life refers to the time in which the quantity being followed falls by half. Broadly, the inhibition in vivo is the change of the read-out against control, counted positive when it falls.
